{"source": "ChEMBL document CHEMBL1201862", "about": "“PubChem BioAssay data set” (2004)", "key": {"Beta Lactamase": {"target": "Beta Lactamase (Pseudomonas aeruginosa, UniProt Q932Y6)", "sequence (Q932Y6 whole entry)": "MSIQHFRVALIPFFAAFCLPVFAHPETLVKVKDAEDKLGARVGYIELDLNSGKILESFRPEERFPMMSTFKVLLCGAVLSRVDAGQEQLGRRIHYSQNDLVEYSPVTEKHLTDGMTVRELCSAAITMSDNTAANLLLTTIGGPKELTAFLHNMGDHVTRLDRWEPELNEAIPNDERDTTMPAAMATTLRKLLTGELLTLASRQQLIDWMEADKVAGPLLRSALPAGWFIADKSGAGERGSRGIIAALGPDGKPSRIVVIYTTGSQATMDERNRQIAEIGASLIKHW", "assay": "BLA reporter interference, concentration series – BLA reporter cells, FRET fluorescence, artefact control for TLR9-MyD88 binding inhibitor project, dose response (AID 588341);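 note: cell based assay in CHO-K1 cells stably expressing beta-lactamase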", "assay_type": "cell-based"}, "CHO": {"tested_on": "CHO", "assay": "CHO cell viability loss, potency – luminescence, cytotoxicity control for TLR9-MyD88 binding inhibitor project, dose response (AID 588339);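 note: CHO cells stably coexpressing TLR9 and MyD88 fusions from primary screen; compound exposure lasted 48 hours before viability readout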", "assay_type": "functional, cell-based, hamster", "conditions": "Cricetulus griseus"}, "Nonstructural protein 1": {"target": "Nonstructural protein 1 (Influenza A virus, UniProt Q194T2)", "sequence (Q194T2 whole entry)": "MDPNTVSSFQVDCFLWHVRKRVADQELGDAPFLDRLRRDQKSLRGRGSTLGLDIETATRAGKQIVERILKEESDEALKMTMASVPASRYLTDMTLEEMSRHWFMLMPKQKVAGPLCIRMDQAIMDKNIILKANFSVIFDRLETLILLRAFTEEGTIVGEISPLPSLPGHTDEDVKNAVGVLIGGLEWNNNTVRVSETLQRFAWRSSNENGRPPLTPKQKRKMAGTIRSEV", "assay_type": "functional, Influenza A virus (A/California/07/2009(H1N1))"}, "Mu-type opioid receptor": {"target": "Mu-type opioid receptor (Homo sapiens, UniProt P35372)", "sequence (P35372 whole entry)": "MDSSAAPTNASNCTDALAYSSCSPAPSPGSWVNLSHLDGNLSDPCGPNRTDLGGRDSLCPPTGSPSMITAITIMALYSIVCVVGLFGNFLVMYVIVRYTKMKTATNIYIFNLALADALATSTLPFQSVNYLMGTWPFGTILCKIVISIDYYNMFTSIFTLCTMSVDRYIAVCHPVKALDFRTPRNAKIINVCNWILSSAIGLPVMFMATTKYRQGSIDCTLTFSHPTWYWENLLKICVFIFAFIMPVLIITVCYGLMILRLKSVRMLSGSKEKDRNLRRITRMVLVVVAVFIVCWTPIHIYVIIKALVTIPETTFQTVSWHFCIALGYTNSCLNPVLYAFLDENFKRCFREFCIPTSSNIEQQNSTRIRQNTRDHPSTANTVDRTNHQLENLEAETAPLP", "assay": "(§1) Counterscreen for agonists of heterodimerization of the mu 1 (OPRM1) and delta 1 (OPRD1) opioid receptors: Luminescence-based cell-based high throughput dose response assay to identify agonists of OPRM1 homodimerization.", "assay_type": "functional"}, "[1]": {"target": "Heat shock protein HSP 90-alpha (Homo sapiens, UniProt P07900)", "assay_type": "functional, organism-based"}, "[2]": {"target": "Delta-type opioid receptor (Homo sapiens, UniProt P41143)", "sequence (P41143 whole entry)": "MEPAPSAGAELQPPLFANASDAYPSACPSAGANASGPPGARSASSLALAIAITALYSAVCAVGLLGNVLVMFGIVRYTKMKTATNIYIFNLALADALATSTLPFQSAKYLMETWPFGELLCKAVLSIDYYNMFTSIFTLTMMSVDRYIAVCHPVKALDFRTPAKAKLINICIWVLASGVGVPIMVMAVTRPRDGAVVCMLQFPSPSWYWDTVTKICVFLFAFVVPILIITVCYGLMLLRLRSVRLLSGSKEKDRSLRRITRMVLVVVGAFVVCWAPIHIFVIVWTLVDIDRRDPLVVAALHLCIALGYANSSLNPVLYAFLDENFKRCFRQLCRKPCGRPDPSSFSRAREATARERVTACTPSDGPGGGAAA", "assay": "as §1, with “of OPRD1” for “of OPRM1”, “homodimerization. [Related pubchem assays (depositor defined):AID504326, AID504355, AID504692, AID504904, AID504905]” for “homodimerization.”", "assay_type": "functional"}, "[3]": {"target": "5-hydroxytryptamine receptor 5A (Homo sapiens, UniProt P47898)", "sequence (P47898 whole entry)": "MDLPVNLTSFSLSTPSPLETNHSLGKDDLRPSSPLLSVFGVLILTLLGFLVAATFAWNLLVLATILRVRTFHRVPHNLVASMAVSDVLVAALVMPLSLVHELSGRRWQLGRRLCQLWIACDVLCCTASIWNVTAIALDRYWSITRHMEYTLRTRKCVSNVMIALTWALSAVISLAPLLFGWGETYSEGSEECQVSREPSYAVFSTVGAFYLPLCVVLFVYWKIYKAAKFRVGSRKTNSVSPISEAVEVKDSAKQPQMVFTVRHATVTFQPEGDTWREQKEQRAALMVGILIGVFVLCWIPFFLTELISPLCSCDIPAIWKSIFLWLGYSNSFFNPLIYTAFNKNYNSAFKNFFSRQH", "assay": "Counterscreen for agonists of OPRM1-OPRD1 heterodimerization: luminescence-based cell-based high throughput dose response assay to identify agonists of 5-hydroxytryptamine (serotonin) 5A receptor (HTR5A). [Related pubchem assays (depositor defined):AID504326, AID504355, AID504692, AID504904, AID504905]", "assay_type": "functional"}, "MDCK [4]": {"tested_on": "MDCK", "assay": "MDCK cell cytotoxicity, dose response, cytotoxicity control (AID 540296)", "assay_type": "functional", "conditions": "Canis lupus familiaris"}, "Vero": {"tested_on": "Vero", "assay": "Vero E6 cell cytotoxicity, dose response, cytotoxicity control (AID 540298)", "assay_type": "functional", "conditions": "Chlorocebus sabaeus"}, "MDCK [5]": {"tested_on": "MDCK", "assay": "antiviral activity against H1N1 influenza, dose response, cell-based, strain KY136 (AID 540257)", "assay_type": "functional", "conditions": "Canis lupus familiaris"}, "Hexokinase-1 [6]": {"target": "T1, Hexokinase-1 (Homo sapiens, UniProt P19367)", "T1 sequence (P19367 whole entry)": "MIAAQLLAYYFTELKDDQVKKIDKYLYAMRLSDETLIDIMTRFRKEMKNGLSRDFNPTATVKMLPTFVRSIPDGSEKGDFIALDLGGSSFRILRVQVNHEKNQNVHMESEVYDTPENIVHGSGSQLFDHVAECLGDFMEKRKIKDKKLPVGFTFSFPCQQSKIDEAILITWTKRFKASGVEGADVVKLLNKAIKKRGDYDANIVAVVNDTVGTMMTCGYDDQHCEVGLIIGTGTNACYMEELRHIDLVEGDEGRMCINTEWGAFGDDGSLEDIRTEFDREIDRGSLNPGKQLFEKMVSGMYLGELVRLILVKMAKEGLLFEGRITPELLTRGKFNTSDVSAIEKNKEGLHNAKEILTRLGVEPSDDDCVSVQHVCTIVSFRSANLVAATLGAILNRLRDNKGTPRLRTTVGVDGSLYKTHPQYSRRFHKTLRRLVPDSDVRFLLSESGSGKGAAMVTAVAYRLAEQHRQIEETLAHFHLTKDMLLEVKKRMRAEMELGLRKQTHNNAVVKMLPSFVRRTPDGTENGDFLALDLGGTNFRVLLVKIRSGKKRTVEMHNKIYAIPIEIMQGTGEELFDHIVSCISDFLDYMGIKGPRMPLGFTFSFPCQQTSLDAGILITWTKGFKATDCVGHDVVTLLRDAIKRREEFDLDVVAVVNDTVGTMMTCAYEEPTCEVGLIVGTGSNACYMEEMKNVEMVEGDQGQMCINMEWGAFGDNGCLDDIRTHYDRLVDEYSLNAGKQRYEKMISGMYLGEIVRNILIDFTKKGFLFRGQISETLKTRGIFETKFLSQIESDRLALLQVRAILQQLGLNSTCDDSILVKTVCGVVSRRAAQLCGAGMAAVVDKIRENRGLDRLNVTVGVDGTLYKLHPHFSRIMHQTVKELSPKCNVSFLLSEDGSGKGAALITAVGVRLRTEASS", "assay": "SAR analysis of small molecule inhibitors of hexokinase domain containing I (HKDC1) in the hexokinase 1 selectivity assay. [Related pubchem assays (depositor defined):AID493160, AID493190]", "assay_type": "functional"}, "Hexokinase HKDC1 [7]": {"target": "T2, Hexokinase HKDC1 (Homo sapiens, UniProt Q2TB90)", "T2 sequence (Q2TB90 whole entry)": "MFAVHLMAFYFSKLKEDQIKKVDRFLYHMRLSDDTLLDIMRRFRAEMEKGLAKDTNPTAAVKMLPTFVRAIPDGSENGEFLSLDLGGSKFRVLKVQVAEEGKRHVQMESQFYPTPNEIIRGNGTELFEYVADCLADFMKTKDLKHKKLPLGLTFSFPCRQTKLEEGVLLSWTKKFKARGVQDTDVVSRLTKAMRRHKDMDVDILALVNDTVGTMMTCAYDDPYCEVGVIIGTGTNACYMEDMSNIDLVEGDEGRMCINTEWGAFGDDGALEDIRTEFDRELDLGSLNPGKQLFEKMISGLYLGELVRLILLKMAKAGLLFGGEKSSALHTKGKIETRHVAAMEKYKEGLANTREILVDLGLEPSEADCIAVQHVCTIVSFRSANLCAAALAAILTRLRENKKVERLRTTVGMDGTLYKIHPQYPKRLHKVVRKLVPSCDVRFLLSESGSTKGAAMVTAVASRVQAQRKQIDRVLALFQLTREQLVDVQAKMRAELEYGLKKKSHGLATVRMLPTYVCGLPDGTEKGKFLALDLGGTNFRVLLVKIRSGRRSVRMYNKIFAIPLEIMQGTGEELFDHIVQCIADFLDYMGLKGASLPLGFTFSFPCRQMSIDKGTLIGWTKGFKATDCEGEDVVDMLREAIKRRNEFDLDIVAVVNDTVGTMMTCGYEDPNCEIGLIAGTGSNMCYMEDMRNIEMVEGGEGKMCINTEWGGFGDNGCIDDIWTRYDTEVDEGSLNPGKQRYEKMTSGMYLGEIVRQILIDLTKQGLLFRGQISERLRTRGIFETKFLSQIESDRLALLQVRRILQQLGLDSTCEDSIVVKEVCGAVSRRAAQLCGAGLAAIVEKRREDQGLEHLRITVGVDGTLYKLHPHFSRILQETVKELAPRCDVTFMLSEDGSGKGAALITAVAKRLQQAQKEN", "assay": "SAR analysis of small molecule inhibitors of hexokinase domain containing I (HKDC1). [Related pubchem assays (depositor defined):AID493160, AID493190]", "assay_type": "functional"}, "Hexokinase-1 [8]": {"target": "T1, Hexokinase-1", "assay": "hexokinase 1 activity inhibitors, potency – biochemical, set 2, resazurin fluorescence coupled readout, selectivity assay for HKDC1 inhibitor project, SAR follow-up (AID 588356)", "assay_type": "functional"}, "Hexokinase HKDC1 [9]": {"target": "T2, Hexokinase HKDC1", "assay": "analog inhibition of human HKDC1 activity – biochemical, set 2, SAR follow-up (AID 588355)", "assay_type": "functional"}, "[10]": {"target": "Voltage-gated inwardly rectifying potassium channel KCNH2 (Homo sapiens, UniProt Q12809)", "sequence (Q12809 whole entry)": "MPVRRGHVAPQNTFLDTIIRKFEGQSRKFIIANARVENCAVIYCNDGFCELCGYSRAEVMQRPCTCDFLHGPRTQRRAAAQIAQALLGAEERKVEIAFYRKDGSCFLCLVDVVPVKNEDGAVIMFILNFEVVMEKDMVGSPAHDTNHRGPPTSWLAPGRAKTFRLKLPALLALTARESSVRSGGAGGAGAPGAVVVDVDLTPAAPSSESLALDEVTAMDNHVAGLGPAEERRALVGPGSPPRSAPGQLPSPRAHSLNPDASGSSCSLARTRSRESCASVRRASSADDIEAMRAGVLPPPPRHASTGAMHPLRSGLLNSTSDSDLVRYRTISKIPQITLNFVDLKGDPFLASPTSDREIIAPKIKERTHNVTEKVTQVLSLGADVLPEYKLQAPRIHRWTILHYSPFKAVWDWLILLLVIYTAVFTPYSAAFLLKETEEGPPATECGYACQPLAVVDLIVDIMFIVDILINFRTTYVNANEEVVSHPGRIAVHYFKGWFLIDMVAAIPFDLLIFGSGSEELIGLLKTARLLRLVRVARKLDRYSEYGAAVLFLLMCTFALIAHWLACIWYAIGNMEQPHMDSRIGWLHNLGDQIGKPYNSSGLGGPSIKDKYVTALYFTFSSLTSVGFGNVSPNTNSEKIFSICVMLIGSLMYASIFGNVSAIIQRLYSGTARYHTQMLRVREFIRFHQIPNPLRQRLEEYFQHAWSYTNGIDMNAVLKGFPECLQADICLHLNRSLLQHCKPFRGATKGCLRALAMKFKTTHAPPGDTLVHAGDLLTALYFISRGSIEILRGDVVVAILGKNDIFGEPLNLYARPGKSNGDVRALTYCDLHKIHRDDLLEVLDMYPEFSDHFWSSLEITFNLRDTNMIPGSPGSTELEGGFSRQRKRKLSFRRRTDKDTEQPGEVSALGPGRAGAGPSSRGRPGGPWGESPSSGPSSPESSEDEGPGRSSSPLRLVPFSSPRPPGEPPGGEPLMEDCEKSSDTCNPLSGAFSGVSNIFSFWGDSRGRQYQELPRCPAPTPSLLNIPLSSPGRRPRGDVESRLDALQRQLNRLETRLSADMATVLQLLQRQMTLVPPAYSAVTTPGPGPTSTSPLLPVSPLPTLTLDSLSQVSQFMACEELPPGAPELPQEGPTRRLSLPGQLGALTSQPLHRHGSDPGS", "conditions": "Potency"}, "Cytochrome P450 1A2": {"target": "T3, Cytochrome P450 1A2 (Homo sapiens, UniProt P05177)", "T3 sequence (P05177 whole entry)": "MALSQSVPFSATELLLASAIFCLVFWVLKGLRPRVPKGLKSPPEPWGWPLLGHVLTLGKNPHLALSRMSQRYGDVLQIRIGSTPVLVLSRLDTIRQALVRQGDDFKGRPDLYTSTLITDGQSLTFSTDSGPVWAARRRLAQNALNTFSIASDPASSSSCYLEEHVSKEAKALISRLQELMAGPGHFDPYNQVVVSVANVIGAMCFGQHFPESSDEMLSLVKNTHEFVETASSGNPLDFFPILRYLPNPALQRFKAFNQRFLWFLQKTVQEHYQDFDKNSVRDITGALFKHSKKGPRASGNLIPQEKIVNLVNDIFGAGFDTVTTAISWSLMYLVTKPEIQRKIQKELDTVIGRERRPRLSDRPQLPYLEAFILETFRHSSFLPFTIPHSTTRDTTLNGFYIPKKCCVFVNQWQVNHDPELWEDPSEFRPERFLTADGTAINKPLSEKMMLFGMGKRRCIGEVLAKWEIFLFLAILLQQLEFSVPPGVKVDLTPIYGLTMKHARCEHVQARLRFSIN"}}, "note": "The source made the active and inactive calls.", "data": [{"smiles": "Nc1ccc2c(c1)Cc1cc([N+](=O)[O-])ccc1-2", "values": [{"measurement": "IC50", "setting": "Beta Lactamase", "value": "6.37 µM (active)"}, {"measurement": "IC50", "setting": "CHO", "value": "> 49.8 µM (inactive)"}]}, {"smiles": "O=C(C=P(c1ccccc1)(c1ccccc1)c1ccccc1)c1ccccc1-c1ccccc1C(=O)C=P(c1ccccc1)(c1ccccc1)c1ccccc1", "values": [{"measurement": "IC50", "setting": "Nonstructural protein 1", "value": "58.5 µM (active)"}, {"measurement": "EC50", "setting": "Mu-type opioid receptor", "value": "> 92.5 µM (inactive)"}, {"measurement": "AC50", "setting": "[1]", "value": "8.19 µM (active)"}, {"measurement": "EC50", "setting": "[2]", "value": "> 92.5 µM (inactive)"}, {"measurement": "EC50", "setting": "[3]", "value": "> 92.5 µM (inactive)"}, {"measurement": "CC50", "setting": "MDCK [4]", "value": "6.63 µM (active)"}, {"measurement": "CC50", "setting": "Vero", "value": "3.43 µM (active)"}, {"measurement": "IC50", "setting": "MDCK [5]", "value": "2.54 µM (active)"}]}, {"smiles": "O=C(O)CCSc1cc(NS(=O)(=O)c2ccccc2)c2ccccc2c1O", "values": [{"measurement": "IC50", "setting": "Hexokinase-1 [6]", "value": "62.4 µM (inactive)"}, {"measurement": "IC50", "setting": "Hexokinase HKDC1 [7]", "value": "7.53 µM (active)"}]}, {"smiles": "Cc1ccccc1N1C(=O)c2ccccc2C1Nc1ccc(Cl)cc1", "note": "(stereo unspecified)", "values": [{"measurement": "IC50", "setting": "Hexokinase-1 [8]", "value": "> 80 µM (inactive)"}, {"measurement": "IC50", "setting": "Hexokinase HKDC1 [9]", "value": "> 80 µM (inactive)"}]}, {"smiles": "CC(=O)N[C@@H](Cc1c[nH]c2ccccc12)C(=O)OCc1cc(C(F)(F)F)cc(C(F)(F)F)c1", "note": "[L-732138]", "values": [{"measurement": "AC50", "setting": "[10]", "value": "12.6 µM (inconclusive)"}, {"measurement": "AC50", "setting": "Cytochrome P450 1A2", "value": "31.6 µM (inconclusive)"}]}]}
